Data published in ChEMBL document CHEMBL4507284, “Data for DCP probe BI-1230” (2021).

Assays:
[1] = molecular target: Serine/threonine-protein kinase RIO1 (Homo sapiens) (UniProt Q9BRS2); conditions: Compound concentration 1000.0 nM
[2] = molecular target: Bone morphogenetic protein receptor type-2 (Homo sapiens) (UniProt Q13873); conditions: Compound concentration 1000.0 nM
[3] = molecular target: Inhibitor of nuclear factor kappa-B kinase subunit alpha (Homo sapiens) (UniProt O15111); conditions: Compound concentration 1000.0 nM
[4] = molecular target: Megakaryocyte-associated tyrosine-protein kinase (Homo sapiens) (UniProt P42679); conditions: Compound concentration 1000.0 nM
[5] = molecular target: Cytoplasmic tyrosine-protein kinase BMX (Homo sapiens) (UniProt P51813); conditions: Compound concentration 1000.0 nM
[6] = molecular target: Serine/threonine-protein kinase B-raf (Homo sapiens) (UniProt P15056); conditions: Compound concentration 1000.0 nM
Sequence of Serine/threonine-protein kinase B-raf (Homo sapiens) (P15056 whole entry): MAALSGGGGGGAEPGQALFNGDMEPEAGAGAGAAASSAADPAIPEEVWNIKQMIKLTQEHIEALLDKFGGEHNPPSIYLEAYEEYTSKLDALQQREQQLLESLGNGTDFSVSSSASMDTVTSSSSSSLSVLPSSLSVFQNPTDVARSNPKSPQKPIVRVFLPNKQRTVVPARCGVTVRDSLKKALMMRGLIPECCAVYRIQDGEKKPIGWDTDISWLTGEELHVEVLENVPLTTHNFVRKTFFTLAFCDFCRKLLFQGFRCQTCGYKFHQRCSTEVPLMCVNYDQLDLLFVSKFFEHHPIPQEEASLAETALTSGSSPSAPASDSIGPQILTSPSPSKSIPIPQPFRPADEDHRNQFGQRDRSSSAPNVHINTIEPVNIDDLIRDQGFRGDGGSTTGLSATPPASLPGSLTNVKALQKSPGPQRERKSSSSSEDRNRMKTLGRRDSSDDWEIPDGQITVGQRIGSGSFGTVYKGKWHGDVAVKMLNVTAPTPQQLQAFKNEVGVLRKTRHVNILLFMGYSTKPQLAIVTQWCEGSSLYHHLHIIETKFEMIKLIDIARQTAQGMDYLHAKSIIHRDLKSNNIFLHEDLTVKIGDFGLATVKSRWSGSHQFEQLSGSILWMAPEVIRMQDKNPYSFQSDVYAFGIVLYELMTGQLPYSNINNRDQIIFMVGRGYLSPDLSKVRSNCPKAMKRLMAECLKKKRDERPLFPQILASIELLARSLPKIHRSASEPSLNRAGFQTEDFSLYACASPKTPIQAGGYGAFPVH

[7] = molecular target: Calcium/calmodulin-dependent protein kinase type II subunit alpha (Homo sapiens) (UniProt Q9UQM7); conditions: Compound concentration 1000.0 nM
[8] = tested on: Epidermal growth factor receptor (Homo sapiens), P00533 [UNDEFINED MUTATION]; conditions: Compound concentration 1000.0 nM
[9] = molecular target: Serine/threonine-protein kinase MRCK alpha (Homo sapiens) (UniProt Q5VT25); conditions: Compound concentration 1000.0 nM
[10] = molecular target: Glycogen synthase kinase-3 beta (Homo sapiens) (UniProt P49841); conditions: Compound concentration 1000.0 nM
[11] = molecular target: Hepatocyte growth factor receptor (Homo sapiens) (UniProt P08581); conditions: Compound concentration 1000.0 nM
[12] = molecular target: Mitogen-activated protein kinase kinase kinase 12 (Homo sapiens) (UniProt Q12852); conditions: Compound concentration 1000.0 nM
[13] = molecular target: Misshapen-like kinase 1 (Homo sapiens) (UniProt Q8N4C8); conditions: Compound concentration 1000.0 nM
[14] = molecular target: 5-hydroxytryptamine receptor 1E (Homo sapiens) (UniProt P28566); conditions: Compound concentration 10.0 uM
[15] = molecular target: Serine/threonine-protein kinase 3 (Homo sapiens) (UniProt Q13188); conditions: Compound concentration 1000.0 nM
[16] = molecular target: Serine/threonine-protein kinase LATS2 (Homo sapiens) (UniProt Q9NRM7); conditions: Compound concentration 1000.0 nM
[17] = molecular target: Alpha-2B adrenergic receptor (Homo sapiens) (UniProt P18089); conditions: Compound concentration 10.0 uM
[18] = molecular target: Ribosomal protein S6 kinase alpha-3 (Homo sapiens) (UniProt P51812); conditions: Compound concentration 1000.0 nM
[19] = molecular target: Homeodomain-interacting protein kinase 1 (Homo sapiens) (UniProt Q86Z02); conditions: Compound concentration 1000.0 nM
[20] = molecular target: Serine/threonine-protein kinase mTOR (Homo sapiens) (UniProt P42345); conditions: Compound concentration 1000.0 nM
[21] = molecular target: Mitogen-activated protein kinase kinase kinase 14 (Homo sapiens) (UniProt Q99558); conditions: Compound concentration 1000.0 nM
[22] = molecular target: Dual serine/threonine and tyrosine protein kinase (Homo sapiens) (UniProt Q6XUX3); conditions: Compound concentration 1000.0 nM
Sequence of Dual serine/threonine and tyrosine protein kinase (Homo sapiens) (Q6XUX3 whole entry): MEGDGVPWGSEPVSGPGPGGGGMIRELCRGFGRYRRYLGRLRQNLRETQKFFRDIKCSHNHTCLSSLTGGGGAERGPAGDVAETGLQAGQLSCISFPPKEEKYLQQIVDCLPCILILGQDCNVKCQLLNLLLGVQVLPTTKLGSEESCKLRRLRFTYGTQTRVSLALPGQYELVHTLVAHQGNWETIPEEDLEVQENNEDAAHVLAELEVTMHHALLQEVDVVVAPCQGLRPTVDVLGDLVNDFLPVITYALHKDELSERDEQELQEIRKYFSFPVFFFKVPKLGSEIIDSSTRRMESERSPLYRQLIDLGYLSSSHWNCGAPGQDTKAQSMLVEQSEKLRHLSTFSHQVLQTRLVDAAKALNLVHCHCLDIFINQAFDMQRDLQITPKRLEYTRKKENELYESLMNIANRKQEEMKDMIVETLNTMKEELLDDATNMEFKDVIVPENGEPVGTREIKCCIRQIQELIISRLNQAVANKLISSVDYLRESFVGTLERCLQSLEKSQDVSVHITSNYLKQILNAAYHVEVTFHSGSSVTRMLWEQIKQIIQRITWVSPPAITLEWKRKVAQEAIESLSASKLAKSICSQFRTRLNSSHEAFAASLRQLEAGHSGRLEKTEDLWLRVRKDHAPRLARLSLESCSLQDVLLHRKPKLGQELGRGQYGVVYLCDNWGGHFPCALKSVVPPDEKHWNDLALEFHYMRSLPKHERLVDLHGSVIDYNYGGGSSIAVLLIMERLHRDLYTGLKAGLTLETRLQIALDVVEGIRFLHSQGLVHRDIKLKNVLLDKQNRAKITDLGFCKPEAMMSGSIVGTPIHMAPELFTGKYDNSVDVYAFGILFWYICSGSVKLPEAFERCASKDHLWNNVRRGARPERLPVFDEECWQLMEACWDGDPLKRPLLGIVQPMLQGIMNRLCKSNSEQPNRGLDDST

[23] = tested on: Tyrosine-protein kinase ABL1 (Homo sapiens), P00519 [Q252H]; conditions: Compound concentration 1000.0 nM
[24] = molecular target: Rhodopsin kinase GRK7 (Homo sapiens) (UniProt Q8WTQ7); conditions: Compound concentration 1000.0 nM
[25] = molecular target: Homeodomain-interacting protein kinase 3 (Homo sapiens) (UniProt Q9H422); conditions: Compound concentration 1000.0 nM
[26] = molecular target: Phosphatidylinositol 4,5-bisphosphate 3-kinase catalytic subunit delta isoform (Homo sapiens) (UniProt O00329); conditions: Compound concentration 1000.0 nM
[27] = molecular target: Serine/threonine-protein kinase DCLK2 (Homo sapiens) (UniProt Q8N568); conditions: Compound concentration 1000.0 nM
Sequence of Serine/threonine-protein kinase DCLK2 (Homo sapiens) (Q8N568 whole entry): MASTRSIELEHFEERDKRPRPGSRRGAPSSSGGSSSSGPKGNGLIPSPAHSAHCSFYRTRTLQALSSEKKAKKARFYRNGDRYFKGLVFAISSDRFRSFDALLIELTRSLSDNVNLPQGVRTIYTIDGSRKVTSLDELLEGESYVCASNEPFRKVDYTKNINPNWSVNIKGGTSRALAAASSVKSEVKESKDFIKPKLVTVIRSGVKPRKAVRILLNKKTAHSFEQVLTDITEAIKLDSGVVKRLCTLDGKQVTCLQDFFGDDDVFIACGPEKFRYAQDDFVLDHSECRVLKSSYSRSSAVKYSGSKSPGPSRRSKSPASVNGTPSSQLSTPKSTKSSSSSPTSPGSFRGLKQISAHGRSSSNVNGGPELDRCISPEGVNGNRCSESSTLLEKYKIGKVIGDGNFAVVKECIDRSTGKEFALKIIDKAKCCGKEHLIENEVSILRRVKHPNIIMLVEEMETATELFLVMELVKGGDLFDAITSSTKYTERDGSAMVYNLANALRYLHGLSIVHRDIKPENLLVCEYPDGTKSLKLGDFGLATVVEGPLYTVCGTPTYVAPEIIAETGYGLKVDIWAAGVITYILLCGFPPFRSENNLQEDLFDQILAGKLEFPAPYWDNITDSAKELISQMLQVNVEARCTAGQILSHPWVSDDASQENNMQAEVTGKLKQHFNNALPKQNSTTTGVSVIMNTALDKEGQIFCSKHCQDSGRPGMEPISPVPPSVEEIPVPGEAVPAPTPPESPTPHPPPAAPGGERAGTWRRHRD

[28] = molecular target: Serine/threonine-protein kinase ULK3 (Homo sapiens) (UniProt Q6PHR2); conditions: Compound concentration 1000.0 nM
[29] = molecular target: Protein kinase C eta type (Homo sapiens) (UniProt P24723); conditions: Compound concentration 1000.0 nM
[30] = tested on: ALK tyrosine kinase receptor (Homo sapiens), Q9UM73 [C1156Y]; conditions: Compound concentration 1000.0 nM
[31] = molecular target: TRAF2 and NCK-interacting protein kinase (Homo sapiens) (UniProt Q9UKE5); conditions: Compound concentration 1000.0 nM
[32] = molecular target: Dual specificity tyrosine-phosphorylation-regulated kinase 1A (Homo sapiens) (UniProt Q13627); conditions: Compound concentration 1000.0 nM
[33] = molecular target: Cyclin-dependent kinase 13 (Homo sapiens) (UniProt Q14004); conditions: Compound concentration 1000.0 nM
[34] = molecular target: Ribosomal protein S6 kinase alpha-2 (Homo sapiens) (UniProt Q15349); conditions: Compound concentration 1000.0 nM
[35] = molecular target: BDNF/NT-3 growth factors receptor (Homo sapiens) (UniProt Q16620); conditions: Compound concentration 1000.0 nM
[36] = molecular target: Tyrosine-protein kinase ZAP-70 (Homo sapiens) (UniProt P43403); conditions: Compound concentration 1000.0 nM
[37] = molecular target: Cyclin-dependent kinase 8 (Homo sapiens) (UniProt P49336); conditions: Compound concentration 1000.0 nM
[38] = molecular target: NUAK family SNF1-like kinase 1 (Homo sapiens) (UniProt O60285); conditions: Compound concentration 1000.0 nM
[39] = molecular target: Muscarinic acetylcholine receptor M2 (Homo sapiens) (UniProt P08172); conditions: Compound concentration 10.0 uM
[40] = molecular target: Serine/threonine-protein kinase SIK3 (Homo sapiens) (UniProt Q9Y2K2); conditions: Compound concentration 1000.0 nM
[41] = molecular target: Receptor-type tyrosine-protein kinase FLT3 (Homo sapiens) (UniProt P36888); conditions: Compound concentration 1000.0 nM
Sequence of Receptor-type tyrosine-protein kinase FLT3 (Homo sapiens) (P36888 whole entry): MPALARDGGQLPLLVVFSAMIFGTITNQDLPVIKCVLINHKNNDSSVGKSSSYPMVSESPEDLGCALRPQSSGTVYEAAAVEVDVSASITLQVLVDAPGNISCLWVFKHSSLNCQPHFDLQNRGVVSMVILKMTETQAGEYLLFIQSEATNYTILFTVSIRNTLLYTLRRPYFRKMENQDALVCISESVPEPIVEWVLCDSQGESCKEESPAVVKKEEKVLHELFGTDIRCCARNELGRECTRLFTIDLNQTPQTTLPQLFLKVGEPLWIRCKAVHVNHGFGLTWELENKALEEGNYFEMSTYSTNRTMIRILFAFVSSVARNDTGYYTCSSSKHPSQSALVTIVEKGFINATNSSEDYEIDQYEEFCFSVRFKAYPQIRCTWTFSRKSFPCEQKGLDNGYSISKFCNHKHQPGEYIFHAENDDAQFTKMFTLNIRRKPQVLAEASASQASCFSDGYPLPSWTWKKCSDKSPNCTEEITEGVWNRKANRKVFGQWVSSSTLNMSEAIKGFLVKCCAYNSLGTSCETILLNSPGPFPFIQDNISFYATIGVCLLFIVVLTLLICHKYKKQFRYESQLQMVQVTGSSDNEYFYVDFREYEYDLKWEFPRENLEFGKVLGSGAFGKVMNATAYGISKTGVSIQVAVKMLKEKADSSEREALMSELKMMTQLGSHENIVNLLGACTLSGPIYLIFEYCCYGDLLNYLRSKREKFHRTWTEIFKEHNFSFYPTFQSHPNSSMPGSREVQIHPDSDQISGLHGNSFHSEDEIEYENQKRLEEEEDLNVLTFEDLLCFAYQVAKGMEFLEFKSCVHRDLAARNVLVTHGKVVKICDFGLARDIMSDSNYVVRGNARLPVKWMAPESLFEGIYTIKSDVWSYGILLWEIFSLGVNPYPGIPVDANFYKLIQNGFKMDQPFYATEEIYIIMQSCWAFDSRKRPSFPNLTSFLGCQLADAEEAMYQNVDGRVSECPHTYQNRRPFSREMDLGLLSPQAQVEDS

[42] = molecular target: Mitogen-activated protein kinase 7 (Homo sapiens) (UniProt Q13164); conditions: Compound concentration 1000.0 nM
[43] = molecular target: MAP/microtubule affinity-regulating kinase 4 (Homo sapiens) (UniProt Q96L34); conditions: Compound concentration 1000.0 nM
[44] = molecular target: LIM domain kinase 2 (Homo sapiens) (UniProt P53671); conditions: Compound concentration 1000.0 nM
[45] = molecular target: Cyclin-dependent kinase-like 2 (Homo sapiens) (UniProt Q92772); conditions: Compound concentration 1000.0 nM

Sequence of Bone morphogenetic protein receptor type-2 (Homo sapiens) (Q13873 whole entry): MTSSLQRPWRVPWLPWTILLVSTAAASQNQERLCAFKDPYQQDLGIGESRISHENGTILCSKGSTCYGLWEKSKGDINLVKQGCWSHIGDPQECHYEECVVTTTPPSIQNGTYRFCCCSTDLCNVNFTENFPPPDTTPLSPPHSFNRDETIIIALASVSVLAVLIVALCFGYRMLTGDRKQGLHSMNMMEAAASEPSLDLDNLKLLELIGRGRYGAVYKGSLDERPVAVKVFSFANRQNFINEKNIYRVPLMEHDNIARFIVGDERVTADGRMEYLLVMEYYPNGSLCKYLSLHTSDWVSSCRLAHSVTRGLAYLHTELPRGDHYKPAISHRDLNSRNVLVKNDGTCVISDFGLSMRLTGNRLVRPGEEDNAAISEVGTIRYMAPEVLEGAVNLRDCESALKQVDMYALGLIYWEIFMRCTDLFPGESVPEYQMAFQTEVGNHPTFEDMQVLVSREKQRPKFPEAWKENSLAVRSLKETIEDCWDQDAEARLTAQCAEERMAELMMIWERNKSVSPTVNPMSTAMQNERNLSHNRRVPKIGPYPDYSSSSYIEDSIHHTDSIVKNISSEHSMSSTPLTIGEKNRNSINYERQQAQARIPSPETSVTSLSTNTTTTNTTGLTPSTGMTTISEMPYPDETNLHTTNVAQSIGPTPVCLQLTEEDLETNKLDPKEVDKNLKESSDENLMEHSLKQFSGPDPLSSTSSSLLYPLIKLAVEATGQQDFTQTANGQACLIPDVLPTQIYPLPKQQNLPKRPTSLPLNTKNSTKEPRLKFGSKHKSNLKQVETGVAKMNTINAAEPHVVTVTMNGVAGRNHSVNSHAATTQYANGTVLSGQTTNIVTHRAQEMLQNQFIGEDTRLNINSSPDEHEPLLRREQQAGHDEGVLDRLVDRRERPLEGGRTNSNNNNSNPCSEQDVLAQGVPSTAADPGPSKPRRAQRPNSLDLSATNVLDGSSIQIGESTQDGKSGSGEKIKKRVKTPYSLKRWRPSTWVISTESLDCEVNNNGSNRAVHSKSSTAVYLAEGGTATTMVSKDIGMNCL
Sequence of Serine/threonine-protein kinase RIO1 (Homo sapiens) (Q9BRS2 whole entry): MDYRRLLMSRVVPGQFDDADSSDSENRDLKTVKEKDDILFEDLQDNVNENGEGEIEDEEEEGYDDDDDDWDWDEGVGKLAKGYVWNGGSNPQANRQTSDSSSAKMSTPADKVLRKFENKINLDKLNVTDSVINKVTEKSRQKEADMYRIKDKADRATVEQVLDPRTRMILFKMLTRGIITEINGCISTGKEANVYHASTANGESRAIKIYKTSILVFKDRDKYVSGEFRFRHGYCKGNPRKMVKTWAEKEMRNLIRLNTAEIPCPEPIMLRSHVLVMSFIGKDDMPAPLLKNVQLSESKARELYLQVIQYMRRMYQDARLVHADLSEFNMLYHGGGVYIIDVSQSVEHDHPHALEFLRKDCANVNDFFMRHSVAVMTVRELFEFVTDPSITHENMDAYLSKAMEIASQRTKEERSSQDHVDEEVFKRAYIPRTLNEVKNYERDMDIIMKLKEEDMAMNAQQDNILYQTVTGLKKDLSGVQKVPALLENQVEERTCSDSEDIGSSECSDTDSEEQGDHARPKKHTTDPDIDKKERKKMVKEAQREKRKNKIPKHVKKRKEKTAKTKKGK

## COc1ccc2c(O[C@@H]3C[C@H]4C(=O)N[C@]5(C(=O)O)CC5/C=C\CCCCC[C@H](NC(=O)OC5CCCC5)C(=O)N4C3)cc(-c3csc(NC(=O)C(C)C)n3)nc2c1C (stereo not given in full) [BI 1230]
[1]
  residual activity: 93%
[2]
  residual activity: 84%
[3]
  residual activity: 92%
[4]
  residual activity: 50%
[5]
  residual activity: 57%
[6]
  residual activity: 86%
[7]
  residual activity: 100%
[8]
  residual activity: 98%
[9]
  residual activity: 100%
[10]
  residual activity: 100%
[11]
  residual activity: 99%
[12]
  residual activity: 92%
[13]
  residual activity: 62%
[14]
  inhibition: 14.9%
[15]
  residual activity: 86%
[16]
  residual activity: 98%
[17]
  inhibition: 60.3%
[18]
  residual activity: 82%
[19]
  residual activity: 77%
[20]
  residual activity: 100%
[21]
  residual activity: 89%
[22]
  residual activity: 68%
[23]
  residual activity: 70%
[24]
  residual activity: 87%
[25]
  residual activity: 83%
[26]
  residual activity: 100%
[27]
  residual activity: 95%
[28]
  residual activity: 93%
[29]
  residual activity: 100%
[30]
  residual activity: 100%
[31]
  residual activity: 96%
[32]
  residual activity: 79%
[33]
  residual activity: 77%
[34]
  residual activity: 100%
[35]
  residual activity: 94%
[36]
  residual activity: 100%
[37]
  residual activity: 68%
[38]
  residual activity: 92%
[39]
  inhibition: 3.22%
[40]
  residual activity: 97%
[41]
  residual activity: 87%
[42]
  residual activity: 100%
[43]
  residual activity: 99%
[44]
  residual activity: 100%
[45]
  residual activity: 89%

## O=C(N[C@H]1CCCCC/C=C\C2C[C@@]2(C(=O)O)NC(=O)[C@@H]2C[C@@H](Oc3ccncc3)CN2C1=O)OC1CCCC1 (stereo not given in full) [BI 1675]
[1]
  residual activity: 63%
[2]
  residual activity: 100%
[3]
  residual activity: 100%
[4]
  residual activity: 41%
[5]
  residual activity: 66%
[6]
  residual activity: 100%
[7]
  residual activity: 95%
[8]
  residual activity: 100%
[9]
  residual activity: 87%
[10]
  residual activity: 89%
[11]
  residual activity: 60%
[12]
  residual activity: 100%
[13]
  residual activity: 100%
[14]
  inhibition: 0%
[15]
  residual activity: 76%
[16]
  residual activity: 100%
[17]
  inhibition: 8.15%
[18]
  residual activity: 89%
[19]
  residual activity: 86%
[20]
  residual activity: 100%
[21]
  residual activity: 100%
[22]
  residual activity: 100%
[23]
  residual activity: 65%
[24]
  residual activity: 100%
[25]
  residual activity: 100%
[26]
  residual activity: 92%
[27]
  residual activity: 93%
[28]
  residual activity: 82%
[29]
  residual activity: 91%
[30]
  residual activity: 100%
[31]
  residual activity: 78%
[32]
  residual activity: 84%
[33]
  residual activity: 90%
[34]
  residual activity: 75%
[35]
  residual activity: 100%
[36]
  residual activity: 96%
[37]
  residual activity: 66%
[38]
  residual activity: 99%
[39]
  inhibition: -1.71%
[40]
  residual activity: 95%
[41]
  residual activity: 100%
[42]
  residual activity: 90%
[43]
  residual activity: 100%
[44]
  residual activity: 93%
[45]
  residual activity: 100%
